Laboratory results as given in patent US11273176B2, “Use of PLA2G5-deficient suppressive macrophages in suppression of inflammation” (THE BRIGHAM AND WOMEN'S HOSPITAL, INC., priority 2016, dated 2022).

Experiments:
[1] = system: C57/BL6 Wt mice; assay: IL-33-induced pulmonary inflammation (intranasal r-IL-33 with or without LA/OA) in Wt mice; type: in vivo, mouse; conditions: for pulmonary inflammation: agent given alone
Method: (§1) C57/BL6 Wt and Pla2g5-null mice^46, 47 (9-12 wk-old males) received 25 μg of Alternaria haracter extract (Greer Laboratories, Lenoir, N.C.) in 20 uL of PBS or PBS alone intranasally on days 0, 3, 6 and 9 and euthanized 18 hours later^1 or a single dose of 100 μg and were euthanized after 1 h or 3 h^2. For IL-33-induced pulmonary inflammation, Wt and Pla2g5-null naïve mice were given mouse rIL-33 (R&D Systems, Minneapolis, Minn.) intranasally (i.n.) 100 ng/dose on days 0, 3, 6 and 9 with or without LA (132 nM)^28 or OA (106 nM), and mice were euthanized 18 hours after the last dose.
(§2) Lung were manually chopped to approximately 10 mm pieces, then digested in RPMI containing 428 U/ml Collagenase IV (Worthington, Lakewood, N.J.) and 20 mg/ml DNAse I (Roche, Mannheim, Germany) (30 min, 37° C.). After red cell lysis, the obtained cell suspension from single mouse was washed, and counted. After washing, cells were blocked (1 h, 4° C.) with 1% of rat anti mouse CD16/CD32 (BD Biosciences, San Jose, Calif.) and 10% donkey serum and then stained (1 h, 4° C.) with appropriate Abs. Mouse cells were stained with CD45 PercPCy5 (clone 30-F11, BioLegend, San Diego, Calif.), CD19 FITC (6D5, Biolegend), CD3 FITC (145-2C11, BioLegend), CD11b FITC (M1/70, BioLegend), CD11c PE-Cy7 FITC (N418, BioLegend), Ly6G/C FITC (RB6-8C5, eBiosciences), Nk1.1 FITC (PK136, Biolegend), FceR1 FITC (MAR-1, Biolegend), Siglec-F APC (E50-2440, BD Bioscience), Thy 1.2 APC (53-2.1, eBioscience, San Diego, Ca), ICOS (C398.4A, eBiosciences), Sca-1 (D7, eBioscieces), CD25 (PC61, eBiosciences), ST2 biotin (clone DJ8, MD Bioscience) followed by PE streptavidin (eBiosciences). In selected experiments cells were fixed with 4% paraformaldehyde (7 min, 21° C.), washed, permeabilized with 0.1% saponin (SigmaAldrich, St Louis, Ca) (7 min, 21° C.) and stained with CD68 APC (FA-11, AbD Serotec, Raleigh, Nc), IL-5 PE (TRFKS, Biolegend), IL-13 (eBio13A eBiosciences), IL-33 PE (396118, R&D Systems, Minneapolis, Minn.), rabbit polyclonal anti murine RELM-a (Peprotech, Rocky Hill N.J.)) and corresponding isotypes as controls. Acquisition was performed on a FACSCanto flow cytometer with FACSDiva software (BD Biosciences), and data were analyzed with FlowJo (Tree Star, Ashland, Oreg.).

[2] = system: Pla2g5-null mice; assay: IL-33-induced pulmonary inflammation (intranasal r-IL-33 with or without LA/OA) in Pla2g5-null mice; type: in vivo, mouse; conditions: for IL-33-induced eosinophilia (numbers of eosinophils), effect of FFA given with IL-33 / pulmonary inflammation: intranasal, 4 doses in 10 days; for pulmonary inflammation: agent given alone
Method: as §1, §2

[3] = system: Wt ILC2; assay: In-vitro stimulation of sorted Wt ILC2, intracellular IL-5 by flow cytometry; type: cell-based, mouse; conditions: LA 200 μM, 8 h; for percentage of IL-5-expressing ILC2s: OA 200 μM or IL-33 30 ng/ml alone
Method: as §2
(§3) Wt and Pla2g5-null mice received four doses of 25 ug of Alternaria in 20 ul of PBS intranasally on day 0, 3, 6 and 9 and euthanized 18h later in order to expand ILC2 prior to FACs sorting. Sorting of ILC2 (CD45+ Lin− (CD3, CD19, Ly6g, CD11c, CD11b, Nk1.1, FcεR1^−), Thy1.2+) was performed using a FACSDiva 8.0.1 cell sorter (BD bio-science). Purified ILC2 (>98%) were rested for 40 hours with 10 ng/mL rIL-2 and rIL-7 (R&D Systems, Minneapolis, Minn.) in a 96 well around bottom plates (20000 cells per well). Prior to stimulation, the medium was changed to fresh medium. ILC2 were cultured with 30 ng/mL rIL-33 (R&D Systems), 200 μM Linoleic Acid (Cayman Chemical) or 200 μM Oleic Acid (Cayman Chemical)^22 or all together for 8h. For intracellular cytokine staining, 1 μl/mL of Golgi Plug (BD Bioscience) was added to ILC2 6h before collection for FACs analysis.

[4] = system: Pla2g5-null ILC2; assay: In-vitro stimulation of sorted Pla2g5-null ILC2, intracellular IL-5 by flow cytometry; type: cell-based, mouse; conditions: LA 200 μM, 8 h; for percentage of IL-5-expressing ILC2s: OA 200 μM or IL-33 30 ng/ml alone; for IL-33-induced increase in IL-5 positive ILC2s, effect of FFA: OA 200 μM with IL-33 30 ng/ml
Method: as §2, §3

In the case of `CCCCC/C=C\C/C=C\CCCCCCCC(=O)O` [LA, linoleic acid], the “IL-33-induced eosinophilia (numbers of eosinophils), effect of FFA given with IL-33” value (“IL-33-induced eosinophilia” below) ([1]; intranasal, 4 doses in 10 days) is reported as “sharp potentiation”, the pulmonary inflammation ([1]; intranasal, 4 doses in 10 days) is reported as “Neither LA nor OA alone caused pulmonary inflammation” and the “IL-33-induced eosinophilia” value [2] is reported as “failed to potentiate”. For the same molecule, the pulmonary inflammation [2] was “Neither LA nor OA alone caused pulmonary inflammation”, the “percentage of IL-5-expressing ILC2s” value [3] was “Neither LA nor OA induced significant IL-5 expression” and the “IL-33-induced expression of IL-5 by ILC2s, effect of FFA” value ([3]; OA 200 μM with IL-33 30 ng/ml) was “significantly potentiated”. For the same molecule, the “percentage of IL-5-expressing ILC2s” value [4] was “Neither LA nor OA induced significant IL-5 expression” and the “IL-33-induced increase in IL-5 positive ILC2s, effect of FFA” value [4] was “suppressed”.

In the case of `CCCCCCCC/C=C\CCCCCCCC(=O)O` [OA, oleic acid], the pulmonary inflammation ([1]; intranasal, 4 doses in 10 days) is reported as “Neither LA nor OA alone caused pulmonary inflammation”, the “IL-33-induced eosinophilia” value [2] is reported as “substantially enhance” and the pulmonary inflammation [2] is reported as “Neither LA nor OA alone caused pulmonary inflammation”. For the same molecule, the “percentage of IL-5-expressing ILC2s” value [3] was “Neither LA nor OA induced significant IL-5 expression”, the “percentage of IL-5-expressing ILC2s” value [4] was “Neither LA nor OA induced significant IL-5 expression” and the “IL-33-induced increase in IL-5 positive ILC2s, effect of FFA” value [4] was “inactive”.

B1: IL-33: mouse rIL-33 (R&D Systems) given intranasally or added to ILC2 cultures (protein, UniProt Q8BVZ5 1-266, looked up)
Interleukin-33: MRPRMKYSNSKISPAKFSSTAGEALVPPCKIRRSQQKTKEFCHVYCMRLRSGLTIRKETSYFRKEPTKRYSLKSGTKHEENFSAYPRDSRKRSLLGSIQAFAASVDTLSIQGTSLLTQSPASLSTYNDQSVSFVLENGCYVINVDDSGKDQEQDQVLLRYYESPCPASQSGDGVDGKKLMVNMSPIKDTDIWLHANDKDYSVELQRGDVSPPEQAFFVLHKKSSDFVSFECKNLPGTYIGVKDNQLALVEEKDESCNNIMFKLSKI
With B1 the “numbers of eosinophils, ILC2s and Sca-1+ILC2” value ([1]; IL-33 i.n. over 10 days (100 ng/dose days 0, 3, 6, 9), homogenate lungs, flow cytometry) was “robustly increased”, the “macrophage activation (RELMα in macrophages)” value ([1]; exogenous IL-33 for 10 days) was “induced substantial macrophage activation” and the pulmonary inflammation ([1]; intranasal, 4 doses in 10 days) was “induces”. For the same molecule, the “numbers of eosinophils, ILC2 and Sca-1+ILC2” value ([2]; IL-33 i.n. over 10 days, compared with Wt controls) was “markedly diminished”, the “macrophage activation (RELMα in macrophages)” value ([2]; exogenous IL-33 for 10 days) was “markedly impaired” and the pulmonary inflammation [2] was “insufficient”. The “percentage of IL-5-expressing ILC2s” value [3] was “significantly increased” and the “percentage of IL-5-expressing ILC2s” value [4] was “significantly increased”.
